What was measured:
[1] = system: A2AR-deficient CD4^+ T cells; assay: A2AR-deficient naive CD4+ T cells with anti-CD3/anti-CD28 coated beads; type: cell-based, mice
Method: FIG. 16A-16J: Context dependent effect of inosine on Th1 T cell differentiation. (a) Naïve CD4^+ T cells were co-cultured with bone marrow derived dendritic cells without IFN-γ. Quantification of T-bet^+CD3e^+CD4^+ T cells 48 hours after co-culture in the presence or absence of inosine and anti-CTLA-4, as indicated. (b) Naïve CD4^+ T cells were cultured anti-CD3/anti-CD28 coated beads at a ratio of 1:1 without IFN-γ for 48 hours. Representative plot and quantification of IL12Rβ2 surface expression on CD4^+ T cells in the presence or absence of inosine (left and right panel). (c) Quantification of T-bet^+CD3e^+CD4^+ T cells 48 hours after co-culture in the presence or absence of inosine, db-cAMP and anti-CTLA-4 as indicated. […] Quantification of T-bet^+CD3e^+CD4^+ T cells 48 hours after co-culture in the presence or absence of inosine or db-cAMP (e) Representative plot and quantification (left and right panel) of pCREB expression of anti-CD3/anti-CD28 bead co-cultured CD4^+ T cells in the presence or absence of inosine or db-cAMP 1 hour after stimulation. […] Il12rb2 and Ifng gene transcripts (normalized to Gapdh) were evaluated 24 and 48 hours following inosine (1 mM) stimulation. […] Analysis through quantitative PCR assay (h) Naïve CD4^+ T cells were cultured with anti-CD3/anti-CD28 coated beads at a ratio of 1:1 without IFN-γ for 24 hours. […]

[2] = system: MC38 tumor cells; assay: MC38 tumors in GF mice: inosine with anti-CTLA-4 with or without CpG; type: in vivo
Method: FIG. 5A-5L: Inosine promotes Th1 activation and anti-tumor immunity. (a) Schematic overview of experimental setup to assess the effect of inosine on Th1 activation in vivo. (b, c) Representative dot plots and quantification (left and right panel respectively) of T-bet^+IFN-γ^+CD3ε^+ (b) CD8^+ or (c) CD4^+ T cells in the MLN. (d) Schematic overview of experimental setup to assess the effect of inosine on anti-tumor immunity. Upon palpable tumors, mice were treated with 100 μg anti-CTLA-4 i.p. (5 times every 72 hours) and in some groups 20 μg CpG i.p. (5 times every 72 hours). In addition, inosine (300 mg/KG/BW) or PBS was given daily orally (O), through gavage or systemically (S) through i.p. injection. (e) Tumor weight and quantification of IFN-γ^+ cells amongst (f) CD4^+ or (g) CD8^+ cells are shown. (h). Schematic overview to assess the requirement of A2AR signaling for inosine-induced anti-tumor immunity. 1×10^6 MC38 cells (s.c.) and WT or A2AR-deficient 1×10^7 T cells (i.v. 6×10^6 CD4^+ and 4×10^6 CD8^+ cells) were injected. Upon palpable tumors, mice were treated with 100 μg anti-CTLA-4, 20 μg CpG (4 times every 72 hours, both i.p.) and inosine (daily, 300 mg/KG/BW, through gavage). (i) Pictures of tumors are shown at day 20. scale bars: 1 cm. (j) Tumor weight and quantification of IFN-γ^+ in (k) CD8^+ or (l) CD4^+ cells in the tumor are shown. Data are mean±SEM and pooled from two individual experiments (a-l) 10-11 mice/group. *, P<0.05; **, P<0.01; ***, P<0.001.
FIG. 18A-18H: Classical dendritic cells are required for bacteria dependent effect of ICB. (a) IL-12p70 expression in classical dendritic cells (MHCII^+CD11c^+B220^−CD64^−) and macrophages (MHCII^+CD11c^+B220^−, CD64^+) (b) Quantification of IL-12p70 expression in macrophages and cDCs. Classical dendritic cells were depleted with diphtheria toxin (DT) in bone marrow chimeric mice after MC38 tumor challenge, followed by anti-CTLA-4 treatment (see FIG. 4h for experimental setup). Quantification of splenic (c) IFN-γ^+CD8^+ or (d) Ki-67^+ CD8^+ T cells. (e and f) same as (c and d) but for CD4^+ T cells. (g and h) 1×10^6 MC38 cells (s.c.) were injected in GF mice. Seven days later upon palpable tumors, mice were treated with 100 μg anti-CTLA-4 i.p. (5 times every 72 hours) and in some groups 20 μg CpG i.p. (5 times every 72 hours). In addition, inosine (300 mg/KG/BW) or PBS was given daily orally (O), through gavage or systemically (S) through i.p. injection. Quantification of Ki-67^+ cells is shown. […]
To evaluate the effect of inosine on Th1 activation, mice received 30 μg CpG, […] EndoFit Ovalbumin (both Invivogen) and 2 μg OVA323-339 (Sigma) i.p. and 24 hours later mice received 300 mg/kg/BW inosine or PBS as a control through i.p. injection. T cell differentiation was assessed 48 hours later. […]

[3] = with anti-CTLA-4, in the absence of CpG
[4] = with anti-CTLA-4 and CpG, oral or systemic, vs PBS

Compound: OC[C@H]1O[C@@H](n2cnc3c(O)ncnc32)[C@H](O)[C@@H]1O [inosine]
- Th1 differentiation and phosphorylation of CREB [1]: absent
- anti-tumor immunity [2, 3]: reduced anti-tumor immunity
- tumor weight [2, 3]: increased tumor weight
- anti-tumor immunity [2, 4]: increased anti-tumor immunity
- tumor weight [2, 4]: reduction of tumor weight
